logP	Compound
2.69	Cc1ccc(CNc2cc(-c3n[nH]c(N)n3)ccn2)cc1
2.63	Nc1nc(-c2ccnc(NCCc3ccccc3)c2)n[nH]1
0.69	CNc1cc(-c2n[nH]c(N)n2)ccn1
2.15	CCCCNc1cc(-c2n[nH]c(N)n2)ccn1
3.05	Nc1nc(-c2ccnc(NCCCc3ccccc3)c2)n[nH]1
3.3	CCCCCCNc1cc(-c2n[nH]c(N)n2)ccn1

Continued, compound first:

Compound	logP
CCCNc1cc(-c2nnc(N)[nH]2)ccn1	1.61
Nc1cc(-c2nnc(N)[nH]2)ccn1	0.11
CCCCCCCCCCNc1cc(-c2nnc(N)[nH]2)ccn1	4.07
COCCNc1cc(-c2nnc(N)[nH]2)ccn1	0.94
Nc1n[nH]c(-c2ccnc(NCCO)c2)n1	0.24
C=CCNc1cc(-c2nc[nH]n2)ccn1	1.26
CCNc1cc(-c2nc(N)n[nH]2)ccn1	1.13

Reference: the OPERA property sets (Mansouri et al. 2018)
